Patent publication US8389236B2, “Assay” (Otago Innovation Limited, priority 2005, dated 2013)

Key:
[1] = system: HIV-1 gag/pol −1 frameshift signal sequence (HIV-1 frameshift construct); test: Stably transfected dual fluorescent reporter recoding assay in Flp-In CV1 cells (−1 frame construct); assay type: cell-based; settings: for DsRed/EGFP ratio / Percentage decrease in ratio / Minus 1 Frameshift Construct EGFP signal, Average / Minus 1 Frameshift Construct DsRed signal, Average: 120 hours; for DsRed/EGFP ratio / Percentage decrease in ratio: stable Flp-In CV1 cells; for DsRed/EGFP ratio: not normalised to Null 0, expressed as a percentage; for Percentage decrease in ratio: vs no drug; for Minus 1 Frameshift Construct EGFP signal, Average: 485 excitation 515 emission; for Minus 1 Frameshift Construct DsRed signal, Average: 535 excitation 590 emission
Method: The translational recoding construct described above was excised via Hind III and Not I restrictions sites and ligated into a Flp-In™ pcDNA5/FRT expression vector (Invitrogen Life Technologies) before being stably transformed into Flp-In™ CV1 cells (Invitrogen Life Technologies) according to the manufacturer's instructions.
Flp-In CV1 cells (CV1 cells), as described in Example 2, transfected with the −1 frame construct, and untransfected CV1 cells were grown, harvested, trypsinised, washed and diluted to 1×10^5 cells/ml all under standard conditions.
Cells were then seeded in 96 well plates under standard conditions. The plates were then incubated for 120 hours at 37° C.
(§1) The cells were washed 3 times with Phosphate Buffered Saline (PBS) to remove any traces of culture medium. 100 ul of Passive Lysis buffer (Promega) was added. The cells were frozen. The frozen cells were then thawed and fluorescence intensity was read in the Tecan Genios Pro plate reader.
Plate reader setting were as follows:
Filters 485 excitation, 515 emission
Filters 535 excitation, 590 emission
As a Null 0 frameshift construct was not used in this experiment ratios of the DsRed to EGFP signal were calculated to take into account the decrease in the EGFP signal with increasing drug concentrations.
The calculation was similar to example 3, with the counts averaged, the control cell counts removed before working out the ratio of the DsRed signal to the EGFP signal. Normalisation using a Null 0 frame construct could not be performed, with the results below being expressed as a percentage. The calculation was a follows: [[DsRed signal: HIV-1 frameshift construct]/[EGFP signal: HIV-1 frameshift construct]]

[2] = system: HIV-1 gag/pol −1 frameshift signal sequence (HIV-1 frameshift construct); test: Dual fluorescent reporter (EGFP/DsRed) recoding assay in transiently transfected COS-7 cells, with Null 0 control construct; assay type: cell-based; settings: for Minus 1 Frameshift Construct EGFP signal, Average / Null 0 Frameshift Construct EGFP signal, Average: 485 excitation 520-P emission; for Minus 1 Frameshift Construct DsRed signal, Average / Null 0 Frameshift Construct DsRed signal, Average: 525 excitation 600LP emission
Method: Mammalian COS-7 cells were grown, harvested, trypsinised, washed and diluted to 1×10^5 cells/ml all under standard conditions.
The diluted cells were then split into two equal portions. One portion was transiently transfected with the recoding construct, and other with the Null 0 frame control construct. Transient transfection was performed using 2 μL of FuGENE® 6 transfection reagent (Roche) and 500 ng of DNA for every mL of cells, in accordance with the manufacturing instructions.
Transfected cells were seeded in 24 well plates under standard conditions. Cycloheximide was added in triplicate at 50 nM and the plates were then incubated for 48 hours at 37° C.
as §1, with “and transferred to a 96 well plate, and” for “and”, “BMG PolarStar” for “Tecan Genios Pro”
Plate reader settings were as follows:
Filters 485 excitation, 520-P emission
Filters 544 excitation, 590 emission
[[DsRed signal: HIV-1 frameshift construct]/[EGFP signal: HIV-1 frameshift construct]]/[[DsRed signal: Null 0 frameshift construct]/[EGFP signal: Null 0 frameshift construct]]
The diluted cells were then split into two equal portions. One portion was transfected, as described in Example 3, with the recoding construct, and other with the Null 0 frame control construct.
Cells were then seeded in 24 well plates under standard conditions. Anisomycin was added in triplicate at 50 nM and the plates were then incubated for 48 hours at 37° C.
The cells were prepared as described in examples 3 and 4.
DsRed signal at 525 excitation, 600LP emission
EGFP signal at 485 excitation, 520-P emission
Frameshift figures, shown in Table 5, were calculated using the formula shown in Example 3 using data from Tables 1, 2, 3 and 4.
Transfected cells were prepared as described in Example 5, and treated with 0 nM (no drug) 100 nM, 200 nM, 300 nM, 400 nM and 500 nM concentrations of anisomycin.
Incubation, plate reader setting and readings were as described in Example 5.
For the anisomycin titrations, the frameshift figures, shown in Table 10, were calculated using the formula shown in Example 3 using data from Tables 6, 7, 8 and 9.

[3] = 50 nM, 48 hours, 485 excitation, 520-P emission
[4] = 50 nM, 48 hours, 544 excitation, 590 emission
[5] = 100 nM, COS-7, 525/600LP filters, vs no drugs

COc1ccc(C[C@H]2NC[C@H](O)[C@H]2OC(C)=O)cc1 [Anisomycin]
DsRed/EGFP ratio ([1]; 50 nM): 7.81%
Percentage decrease in ratio ([1]; 50 nM): −1.47%
Minus 1 Frameshift Construct EGFP signal, Average ([1]; 50 nM): 12588
Minus 1 Frameshift Construct DsRed signal, Average ([1]; 50 nM): 1348
DsRed/EGFP ratio ([1]; 100 nM): 7.60%
Percentage decrease in ratio ([1]; 100 nM): 1.17%
Minus 1 Frameshift Construct EGFP signal, Average ([1]; 100 nM): 12188
Minus 1 Frameshift Construct DsRed signal, Average ([1]; 100 nM): 1301
DsRed/EGFP ratio ([1]; 500 nM): 1.44%
Percentage decrease in ratio ([1]; 500 nM): 81.34%
Minus 1 Frameshift Construct EGFP signal, Average ([1]; 500 nM): 8977
Minus 1 Frameshift Construct DsRed signal, Average ([1]; 500 nM): 795
DsRed/EGFP ratio ([1]; 1000 nM): −0.81%
Percentage decrease in ratio ([1]; 1000 nM): 110.53%
Minus 1 Frameshift Construct EGFP signal, Average ([1]; 1000 nM): 8386
Minus 1 Frameshift Construct DsRed signal, Average ([1]; 1000 nM): 704
DsRed/EGFP ratio ([1]; 2000 nM): −3.13%
Percentage decrease in ratio ([1]; 2000 nM): 140.70%
Minus 1 Frameshift Construct EGFP signal, Average ([1]; 2000 nM): 7681
Minus 1 Frameshift Construct DsRed signal, Average ([1]; 2000 nM): 641
% decrease in ratio over concentration range ([1]; range between 50 nM and 2000 nM, stable cells, result in words): dose responsive effect
decrease in frameshift from the original (no drug) value ([2]; 50 nM, 48 hours, COS-7, 544/590 filters): 5.3%
Frameshift ([2]; 50 nM, 48 hours, COS-7, DsRed 544 excitation/590 emission, EGFP 485/520-P, normalised to Null 0 construct): 5.64%
absolute change frameshift efficiency ([2]; 50 nM, 48 hours, COS-7, vs no drug control, 544/590 filters): 0.32%
EGFP signal, HIV-1 frameshift construct, average [2, 3]: 32666 RFU
EGFP signal, HIV-1 frameshift construct, average minus control [2, 3]: 32336 RFU
EGFP signal, Null 0 frameshift construct, average [2, 3]: 56491 RFU
EGFP signal, Null 0 frameshift construct, average minus control [2, 3]: 56161 RFU
DsRed signal, HIV-1 frameshift construct, average [2, 4]: 1975 RFU
DsRed signal, HIV-1 frameshift construct, average minus control [2, 4]: 1891 RFU
DsRed signal, Null 0 frameshift construct, average [2, 4]: 58293 RFU
DsRed signal, Null 0 frameshift construct, average minus control [2, 4]: 58209 RFU
Minus 1 Frameshift Construct EGFP signal, Average ([2]; 100 nM): 31923
Null 0 Frameshift Construct EGFP signal, Average ([2]; 100 nM): 55732
Minus 1 Frameshift Construct DsRed signal, Average ([2]; 100 nM): 3072
Null 0 Frameshift Construct DsRed signal, Average ([2]; 100 nM): 55345
Percentage decrease in frameshift [2, 5]: 1.39%
absolute change in frameshift efficiency [2, 5]: 0.11%
Percentage decrease in frameshift ([2]; 100 nM, COS-7, 525/600LP filters, vs no drugs, listed as anisomycin): 1.4%
Frameshift ([2]; 100 nM, COS-7, DsRed 525 excitation/600LP emission): 7.89%
Frameshift ([2]; 100 nM, COS-7, DsRed 525 excitation/600LP emission, listed as anisomycin): 7.88%
Minus 1 Frameshift Construct EGFP signal, Average ([2]; 200 nM): 37862
Null 0 Frameshift Construct EGFP signal, Average ([2]; 200 nM): 51856
Minus 1 Frameshift Construct DsRed signal, Average ([2]; 200 nM): 3555
Null 0 Frameshift Construct DsRed signal, Average ([2]; 200 nM): 50020
Percentage decrease in frameshift ([2]; 200 nM, COS-7, 525/600LP filters, vs no drugs): −2.21%
Frameshift ([2]; 200 nM, COS-7, DsRed 525 excitation/600LP emission): 8.17%
Minus 1 Frameshift Construct EGFP signal, Average ([2]; 300 nM): 32560
Null 0 Frameshift Construct EGFP signal, Average ([2]; 300 nM): 38929
Minus 1 Frameshift Construct DsRed signal, Average ([2]; 300 nM): 2995
Null 0 Frameshift Construct DsRed signal, Average ([2]; 300 nM): 36774
Percentage decrease in frameshift ([2]; 300 nM, COS-7, 525/600LP filters, vs no drugs): 1.47%
Frameshift ([2]; 300 nM, COS-7, DsRed 525 excitation/600LP emission): 7.88%
Minus 1 Frameshift Construct EGFP signal, Average ([2]; 400 nM): 18630
Null 0 Frameshift Construct EGFP signal, Average ([2]; 400 nM): 18532
Minus 1 Frameshift Construct DsRed signal, Average ([2]; 400 nM): 1804
Null 0 Frameshift Construct DsRed signal, Average ([2]; 400 nM): 16734
Percentage decrease in frameshift ([2]; 400 nM, COS-7, 525/600LP filters, vs no drugs): 8.53%
Frameshift ([2]; 400 nM, COS-7, DsRed 525 excitation/600LP emission): 7.32%
Minus 1 Frameshift Construct EGFP signal, Average ([2]; 500 nM): 9376
Null 0 Frameshift Construct EGFP signal, Average ([2]; 500 nM): 8119
Minus 1 Frameshift Construct DsRed signal, Average ([2]; 500 nM): 1121
Null 0 Frameshift Construct DsRed signal, Average ([2]; 500 nM): 7045
Percentage decrease in frameshift ([2]; 500 nM, COS-7, 525/600LP filters, vs no drugs): 16.21%
Frameshift ([2]; 500 nM, COS-7, DsRed 525 excitation/600LP emission): 6.70%
effect on −1 frameshifting ([2]; result in words): antagonists to −1 frameshifting
